Legend:
myeloperoxidase [1] = target: T1, myeloperoxidase (Homo sapiens (Human), UniProt P05164); test: MPO Peroxidation Assay (Amplex Red Assay); format: biochemical; conditions: potency range class
Description: MPO Peroxidation Assay (Amplex Red Assay)
MPO peroxidation activity was measured in 100 mM KPi (pH 7.4) by utilizing the non-fluorescent reagent Amplex Red (Invitrogen Cat. #A12222) which can be oxidized to the highly fluorescent resorufin. Amplex Red is oxidized by the peroxidase action of MPO to resorufin. Reactions were carried out in 50 μL total volume by adding a 25 μL mixture of 200 pM myeloperoxidase and 40 nM H2O2(Sigma #349887) to 100 nL inhibitor in 100% DMSO in a 384 well Perkin Elmer Optiplate. Enzyme and compound were preincubated for ten minutes at rt.
After the ten minute preincubation, 25 μL of an Amplex Red mixture containing 200 μM Amplex Red and 10 mM H2O2 was added to the plate. Kinetic determinations were carried out immediately on a Perkin Elmer Envision (15 minute kinetic read, Ex: 535 nm, Em: 590 nm).
IC50 values were calculated by determining the slope of the linear portion of the kinetic trace (180-540 secs), and using that calculated slope to determine % inhibition occurring at each concentration of inhibitor using the following equation:
(§1) [formula] where A=minimal Y value (activity level of inhibited sample), B=maximal Y value (activity level of uninhibited sample), C=Log IC50, D=Hill Slope, x=concentration of inhibitor. MPO Chlorination Assay (APF Assay)

myeloperoxidase [2] = target: T1, myeloperoxidase; test: MPO Chlorination Assay (APF Assay); format: biochemical; conditions: potency range class
Description: as §1
MPO chlorination activity was measured in 100 mM KPi (pH 7.4) by utilizing the non-fluorescent reagent Aminophenyl fluorescein (APF, Invitrogen Cat. #A36003). APF is cleaved by (—OCl) to yield the fluorescent compound fluorescein. Reactions were carried out in 50 μL total volume by adding a 25 μL mixture of 200 pM myeloperoxidase and 120 mM NaCl to 100 nL inhibitor in 100% DMSO in a 384 well, non-binding surface clear bottom plate (Corning #3655). Enzyme, inhibitor, and chloride were preincubated for ten minutes at rt.
After the ten minute preincubation, 25 μL of an APF mixture containing […], 120 mM NaCl and 10 μM H2O2 was added to the plate using the internal dispensing system of a Hammatsu FDSS 6000. Kinetic determinations were carried out immediately on the FDSS 6000 (3 minute kinetic read, 1 read every second, ex: 485 nm, em: 535 nm). IC50 values for inhibitors were calculated by taking the slope of the linear portion of the kinetic measurement (20 seconds to ˜80-120 secs). […]
[formula] where A=minimal Y value (activity level of inhibited sample), B=maximal Y value (activity level of uninhibited sample), C=Log IC50, D=Hill Slope, x=concentration of inhibitor.

T1 sequence (P05164 49-745): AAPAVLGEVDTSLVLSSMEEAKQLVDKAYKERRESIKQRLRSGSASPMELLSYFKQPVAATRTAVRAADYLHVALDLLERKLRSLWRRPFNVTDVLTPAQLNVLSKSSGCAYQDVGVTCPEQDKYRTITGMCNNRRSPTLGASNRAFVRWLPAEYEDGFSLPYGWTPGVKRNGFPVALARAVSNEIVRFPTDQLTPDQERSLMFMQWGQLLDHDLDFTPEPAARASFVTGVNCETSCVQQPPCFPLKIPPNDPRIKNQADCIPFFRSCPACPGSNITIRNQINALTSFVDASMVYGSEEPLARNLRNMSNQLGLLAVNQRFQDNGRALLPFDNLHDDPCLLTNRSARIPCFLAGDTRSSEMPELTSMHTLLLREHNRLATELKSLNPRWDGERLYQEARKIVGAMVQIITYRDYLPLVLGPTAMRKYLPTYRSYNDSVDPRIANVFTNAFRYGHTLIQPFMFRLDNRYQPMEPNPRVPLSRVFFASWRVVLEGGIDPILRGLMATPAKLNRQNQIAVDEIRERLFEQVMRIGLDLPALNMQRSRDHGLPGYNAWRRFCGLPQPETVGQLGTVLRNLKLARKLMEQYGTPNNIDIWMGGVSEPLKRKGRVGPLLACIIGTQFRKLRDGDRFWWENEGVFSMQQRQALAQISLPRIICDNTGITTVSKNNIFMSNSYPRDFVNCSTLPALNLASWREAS

| Structure (SMILES) | IC50 (myeloperoxidase [1]) [nM] | IC50 (myeloperoxidase [2]) [nM] |
| --- | --- | --- |
| Nc1cc(C(CCN[C@H]2CC[C@H](c3ccccc3)CC2)c2cnn(CCC(F)(F)F)c2)c2nn[nH]c2n1 (stereo partly drawn) [Example 30, 7-(3-{[trans-4-Phenylcyclohexyl]amino}-1-[1-(3,3,3-trifluoropropyl)-1H-pyrazol-4-yl]propyl)-3H-[1,2,3]triazolo[4,5-b]pyridin-5-amine] | 101 to 999 | 1 to 100 |
| Nc1cc(C(CCNCc2ccccc2)c2cnn(Cc3cccc(O)c3)c2)c2nn[nH]c2n1 (centres unmarked) [Example 46] | 101 to 999 | 101 to 999 |
| Nc1cc(C(CCN[C@H]2CC[C@H](c3ccccc3)CC2)c2cnn(C3CCC3)c2)c2nn[nH]c2n1 (some centres unmarked) [Example 20, 7-[1-(1-Cyclobutyl-1H-pyrazol-4-yl)-3-{[(1r,4r)-4-phenylcyclohexyl]amino}propyl]-3H-[1,2,3]triazolo[4,5-b]pyridin-5-amine] | 101 to 999 | 1 to 100 |
| Nc1cc(C(CCNC23CCC(c4ccccc4)(CC2)[C@H](O)C3)c2cnn(Cc3cccc(O)c3)c2)c2nn[nH]c2n1 (some centres unmarked) [Example 51] | 1 to 100 | 1 to 100 |
| CCCC(c1cnn(Cc2ccc3c(c2)CCNC3)c1)c1cc(N)nc2[nH]nnc12 (centres unmarked) [Example 2, 7-{1-[1-(1,2,3,4-tetrahydroisoquinolin-6-ylmethyl)-1H-pyrazol-4-yl]butyl}-3H-[1,2,3]triazolo[4,5-b]pyridin-5-amine] | 101 to 999 | 101 to 999 |
| Nc1cc(C(CCCc2ccccc2)c2cnn(Cc3cccc(C4CCNCC4)c3)c2)c2nn[nH]c2n1 (centres unmarked) [Example 13, 7-[4-Phenyl-1-(1-{[3-(piperidin-4-yl)phenyl]methyl}-1H-pyrazol-4-yl)butyl]-3H-[1,2,3]triazolo[4,5-b]pyridin-5-amine] | 101 to 999 | 1 to 100 |
| Nc1cc(C(CCN[C@H]2CC[C@H](c3ccccc3)CC2)c2cnn(Cc3ccccc3)c2)c2nn[nH]c2n1 (some centres unmarked) [Example 18, 7-[1-(1-Benzyl-1H-pyrazol-4-yl)-3-{[(1r,4r)-4-phenylcyclohexyl]-amino}propyl]-3H-[1,2,3]triazolo 4,5-b pyridin-5-amine] | 1 to 100 | 1 to 100 |
| Nc1cc(C(CCNCc2cccc(CO)c2)c2cnn(Cc3cccc(O)c3)c2)c2nn[nH]c2n1 (centres unmarked) [Example 48] | 1000 to 10000 | 101 to 999 |
| Nc1cc(C(CCNCc2cccc(O)c2)c2cnn(Cc3cccc(O)c3)c2)c2nn[nH]c2n1 (centres unmarked) [Example 49] | 1000 to 10000 | 101 to 999 |
| Nc1cc(C(CCN[C@H]2CC[C@H](c3ccccc3)CC2)c2cnn(Cc3ccc(Cl)cc3)c2)c2nn[nH]c2n1 (stereo partly drawn) [Example 19, 7-(1-{1-[(4-Chlorophenyl)methyl]-1H-pyrazol-4-yl}-3-{[trans-4-phenylcyclohexyl]amino}propyl)-3H-[1,2,3]triazolo[4,5-b]pyridin-5-amine] | 101 to 999 | 1 to 100 |
| Nc1cc(C(CCCC2NCCc3ccccc32)c2cnn(Cc3ccccc3)c2)c2nn[nH]c2n1 (centres unmarked) [Example 14, 7-[1-(1-Benzyl-1H-pyrazol-4-yl)-4-(1,2,3,4-tetrahydroisoquinolin-1-yl)butyl]-3H-[1,2,3]triazolo[4,5-b]pyridin-5-amine] | 101 to 999 | 1 to 100 |
| Nc1cc(C(CCCc2cccc3ccccc23)c2cnn(Cc3ccc4c(c3)CCNC4)c2)c2nn[nH]c2n1 (centres unmarked) [Example 9, 7-[4-(Naphthalen-1-yl)-1-[1-(1,2,3,4-tetrahydroisoquinolin-6-ylmethyl)-1H-pyrazol-4-yl]butyl]-3H-[1,2,3]triazolo[4,5-b]pyridin-5-amine] | 1000 to 10000 | 1 to 100 |
| Nc1cc(C(CCN2C[C@H](Cc3ccccc3)[C@@H](O)C2)c2cnn(Cc3cccc(O)c3)c2)c2nn[nH]c2n1 (some centres unmarked) [Example 43] | 1000 to 10000 | 1 to 100 |
| Nc1cc(C(CCN[C@H]2CC[C@H](c3ccccc3)CC2)c2cncc(F)c2)c2nn[nH]c2n1 (some centres unmarked) [Example 44] | 1000 to 10000 | 101 to 999 |
| Nc1cc(C(CCN[C@H]2CC[C@H](c3ccccc3)CC2)c2cnn(C3CC3)c2)c2nn[nH]c2n1 (stereo partly drawn) [Example 32, 7-[1-(1-Cyclopropyl-1H-pyrazol-4-yl)-3-{[trans-4-phenylcyclohexyl]amino}propyl]-3H-[1,2,3]triazolo[4,5-b]pyridin-5-amine] | 1000 to 10000 | 101 to 999 |
| Nc1cc(C(CCCc2ccc3ccccc3c2)c2cnn(Cc3ccc4c(c3)CCNC4)c2)c2nn[nH]c2n1 (centres unmarked) [Example 7, 7-[4-(naphthalen-2-yl)-1-[1-(1,2,3,4-tetrahydroisoquinolin-6-ylmethyl)-1H-pyrazol-4-yl]butyl]-3H-[1,2,3]triazolo[4,5-b]pyridin-5-amine] | 101 to 999 | 1 to 100 |
| Nc1cc(C(CCCc2ccccc2)c2cnn(Cc3ccc4c(c3)CCNC4)c2)c2nn[nH]c2n1 (centres unmarked) [Example 1, 7-(4-phenyl-1-(1-((1,2,3,4-tetrahydroisoquinolin-6-yl)methyl)-1H-pyrazol-4-yl)butyl)-3H-[1,2,3]triazolo[4,5-b]pyridin-5-amine] | 1000 to 10000 | 1 to 100 |
| Nc1cc(C(CCN[C@H]2CC[C@H](c3ccccc3)CC2)c2cnn(C3CCC3(F)F)c2)c2nn[nH]c2n1 (stereo partly drawn) [Example 28, 7-{1-[1-(2,2-Difluorocyclobutyl)-1H-pyrazol-4-yl]-3-{[trans-4-phenylcyclohexyl]amino}propyl}-3H-[1,2,3]triazolo[4,5-b]pyridin-5-amine] | 101 to 999 | 1 to 100 |
| Cn1cc(C(CCNCc2ccccc2)c2cc(N)nc3[nH]nnc23)cn1 (centres unmarked) [Example 15, 7-[3-(Benzylamino)-1-(1-methyl-1H-pyrazol-4-yl)propyl]-3H-[1,2,3]triazolo[4,5-b]pyridin-5-amine] | 101 to 999 | 1000 to 10000 |
| Nc1cc(C(CCN[C@@H]2CC[C@@H](Cc3ccccc3)C2)c2cnn(CCc3cccc(O)c3)c2)c2nn[nH]c2n1 (some centres unmarked) [Example 53] | 1000 to 10000 | 101 to 999 |
| Nc1cc(C(CCN[C@H]2CC[C@H](c3ccccc3)CC2)c2cnn(C3CC(F)C3(F)F)c2)c2nn[nH]c2n1 (stereo partly drawn) [Example 29, 7-(3-{[trans-4-phenylcyclohexyl]amino}-1-[1-(2,2,3-trifluorocyclobutyl)-1H-pyrazol-4-yl]propyl)-3H-[1,2,3]triazolo[4,5-b]pyridin-5-amine] | 101 to 999 | 1 to 100 |
| Nc1cc(C(CCCC2CCCCC2)c2cnn(Cc3ccc4c(c3)CCNC4)c2)c2nn[nH]c2n1 (centres unmarked) [Example 6, 7-{4-cyclohexyl-1-[1-(1,2,3,4-tetrahydroisoquinolin-6-ylmethyl)-1H-pyrazol-4-yl]butyl}-3H-[1,2,3]triazolo[4,5-b]pyridin-5-amine] | 101 to 999 | 1 to 100 |
| Nc1cc(C(CCN[C@H]2CC[C@H](c3ccccc3)CC2)c2cc[nH]c(=O)c2)c2nn[nH]c2n1 (stereo partly drawn) [Example 35, 4-(1-{5-Amino-3H-[1,2,3]triazolo[4,5-b]pyridin-7-yl}-3-{[trans-4-phenylcyclohexyl]amino}propyl)-1,2-dihydropyridin-2-one] | 101 to 999 | 1 to 100 |
| Nc1cc(C(CCN[C@H]2C[C@H](Cc3ccccc3)[C@@H](O)C2)c2cnn(CCc3cccc(O)c3)c2)c2nn[nH]c2n1 (some centres unmarked) [Example 54] | 1000 to 10000 | 101 to 999 |
| Nc1cc(C(CCOCc2ccccc2)c2cnn(Cc3ccc4c(c3)CCNC4)c2)c2nn[nH]c2n1 (centres unmarked) [Example 4, 7-(3-(benzyloxy)-1-(1-((1,2,3,4-tetrahydroisoquinolin-6-yl)methyl)-1H-pyrazol-4-yl)propyl)-3H-[1,2,3]triazolo[4,5-b]pyridin-5-amine] | 1000 to 10000 | 101 to 999 |
